Data: BindingDB's records for doi:10.1016/0960-894X(95)00403-G (1995)

Assay: Compound was tested for inhibiting [3H]N-Methyl-scopolamine Binding to Muscarinic acetylcholine receptor M4 in NG 108-15 Cell

**Q.** For `C[N+]1(C)CCC2(CC1)OC(=O)C(c1ccccc1)(c1ccccc1)O2`, which Ki is on record?
**A.** 11 nM
